Measured values as given in patent US8088892B2, “Inhibitors of proteins from the Rho-GEF family” (Centre National de la Recherche Scientifique (C.N.R.S.), priority 2002, dated 2012).
“Also recorded” adds a separate entry of the source.

Tested on: NGF-differentiated PC12 cells
Assay: Serum-induced neurite retraction
Assay type: cell-based
Conditions: 0 to 15 min after serum addition
Protocol: FIG. 6A represents histograms quantifying the effects of GFP-TRIPα or GFP on serum induced neurite retraction in NGF-differentiated PC12 cells. The X-axis represents the time after serum addition in minutes and the Y-axis represents the percentage of transfected cells with neurites.
Cells were transfected with GFP-TRIPα (white bars) or GFP (black bars) and differentiated with NGF (50 ng/ml). Serum was added and neurite retraction was followed for 15 minutes. The number of transfected cells with neurites was counted from at least 200 cells in 3 independent experiments.
Since Trio is an activator of RhoA and is expressed in PC12 cells (Estrach et al., 2002), it was analysed whether TRIPα could interfere with serum-induced neurite retraction in NGF-differentiated PC12 cells. […] After NGF treatment, cells were subjected to serum addition (DMEM medium supplemented with 10% HS and 5% fetal calf serum (FCS)) from 0 to 15 min (FIG. 6A). Cells were then fixed and permeabilised (Estrach et al., 2002) and observed as described in FIG. 5. Cells with neurites are defined as cells with neurites of at least twice the length of the cell body.

AREGADGAICGYNLATLVMLGPSERVFCPLCEPCSSDIYELM [TRIPα, 42-amino acid peptide corresponding to the variable region of TRIAPα]
Effect on serum-induced neurite retraction: prevents serum- and LPA-induced neurite retraction; also recorded: significantly inhibited this retraction
